Data taken from US20030199558A1, “Hydroxamic acid and its derivatives as inhibitors of melanocyte tyrosinase for topical skin lighteners” (Integriderm, Inc., priority 2001, published 2003).
Values after ≈ are worked out from the molar mass of the structure shown. Values joined by “and” are separate entries in the source; they are usually repeats but may differ in a detail not shown here. Equal entries are not always repeated. Where two headings read alike, the source gives them in different places.

How the values were obtained:
mammalian tyrosinase [1] = target: T1, mammalian tyrosinase (Mus musculus, UniProt P11344); conditions: cited from earlier work
T1 construct: Cellular lysates of Mel-Ab cells may be used as tyrosinase enzyme preparations; endogenous in cells; host or cells: Mel-Ab mouse melanocytes (cell lysate)
T1 sequence (P11344 19-533): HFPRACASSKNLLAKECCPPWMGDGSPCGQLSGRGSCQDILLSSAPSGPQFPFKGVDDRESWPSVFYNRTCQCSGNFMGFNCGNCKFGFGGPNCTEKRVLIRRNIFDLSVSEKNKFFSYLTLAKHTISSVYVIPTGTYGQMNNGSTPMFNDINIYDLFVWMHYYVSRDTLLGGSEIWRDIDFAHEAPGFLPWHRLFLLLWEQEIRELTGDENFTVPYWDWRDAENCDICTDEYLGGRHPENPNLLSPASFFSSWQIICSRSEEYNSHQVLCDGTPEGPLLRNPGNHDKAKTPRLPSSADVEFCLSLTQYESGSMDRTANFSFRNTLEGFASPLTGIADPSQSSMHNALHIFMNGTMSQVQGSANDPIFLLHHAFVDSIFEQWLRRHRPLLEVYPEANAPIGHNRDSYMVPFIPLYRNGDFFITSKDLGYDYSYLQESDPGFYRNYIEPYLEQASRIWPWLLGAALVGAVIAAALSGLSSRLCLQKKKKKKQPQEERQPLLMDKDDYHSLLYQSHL

Mel Ab melanocyte [2] = conditions: cited from earlier work
[3] = tested on: mammalian melanocyte culture; conditions: cited from earlier work
Mel Ab melanocyte [4] = assay: mammalian Mel Ab melanocyte culture pigment assay; assay type: cell-based, mouse; conditions: read-out: P: concentration of compound that produces 50% inhibition in the mammalian Mel Ab melanocyte culture pigment assay
Source text: (§1) In the present invention, one or more of three in vitro bioassays can be utilized to evaluate the efficacy and toxicity of candidate skin-lightening compounds. The three bioassays characterize the compounds with regard to mammalian tyrosinase enzyme inhibition (cell free), pigmentation in cultured melanocyte cells, and cytotoxicity of mammalian cultured cells. Both cell-based pigmentation and cell-free enzymatic assays have been developed using the mammalian melanocyte cell line, Mel-Ab, a C57BL/6 mouse-derived cell line that produces high levels of melanin. A distinct advantage of this approach is that humans share substantial sequence similarities in their genes (DNA) and proteins (such as tyrosinase) with mice, relative to non-mammalian species (e.g., mushrooms). So, in vitro mouse Mel-Ab melanocytes can serve as adequate surrogates for human melanocytes and Mel-Ab-derived tyrosinase may substitute for the human enzyme for many pharmacologic purposes.
(§2) These adherent murine melanocytes are grown on tissue culture plastic in medium supplemented with fetal bovine serum, 12-O-tetradecanoylphorbol-13-acetate (TPA) to stimulate cell division via down-regulation of protein kinase C, [22, 23] and cholera toxin to stimulate adenylate cyclase activity in the absence of α-MSH. Cellular lysates of Mel-Ab cells may be used as tyrosinase enzyme preparations. Multi-well plate assays have been validated for enzyme inhibition (e.g., DOPA oxidation by calorimetric measurement or radiolabeled substrate incorporation into melanin) and for pigmentation assays on cultured Mel-Ab cells. After 4-6 days of treatment of cultured cells, melanin content is determined using a spectrophotometer at 400+ nm. This assay can detect an apparent loss in pigmentation resulting from either inhibition of de novo synthesis (e.g. via inhibition of tyrosinase, or the adenylate cyclase pathway, or another pathway) or a cytostatic/cytotoxic mechanism. It is therefore a broad primary screen. It is used in parallel with the tyrosinase enzymatic assay to determine whether an inhibitor of pigmentation at the cellular level is acting primarily at the enzyme level.
(§3) Inhibition [μM] as measured in three assays. Here “E” “E” [μM] is the concentration of compound that produces 50% inhibition in the cell-free mammalian tyrosinase enzyme assay is the concentration of compound that produces 50% inhibition in the cell-free mammalian tyrosinase enzyme assay. “P” represents the concentration of compound that produces 50% inhibition in the mammalian Mel Ab melanocyte culture pigment assay system. “T” is the concentration of compound that results in 50% reduction in cell number in the mammalian melanocyte culture toxicity assay system.

mammalian tyrosinase [5] = target: T1, mammalian tyrosinase; assay: cell-free mammalian tyrosinase enzyme assay; assay type: biochemical; conditions: cell-free enzyme extract; read-out: E: concentration of compound that produces 50% inhibition in the cell-free mammalian tyrosinase enzyme assay
Source text: as §1, §2
A first class of compounds based upon the template compound benzohydroxamic acid were tested for tyrosinase inhibition by methods described in Curto, E. V., et al. (1999). Results of the tests are given in Examples 1-5.
as §3

[6] = tested on: mammalian melanocyte culture; assay: mammalian melanocyte culture toxicity assay; assay type: cell-based, mouse
Source text: To determine cytotoxicity (and/or cytostasis), crystal violet or other staining methods may be used to quantify adherent cell numbers following a period of treatment by an agent.

SMILES	IC50 (Mel Ab melanocyte [4]; Mus musculus, Mel-Ab)	IC50 (mammalian tyrosinase [5])	T: concentration of compound that results in 50% reduction in cell number in the mammalian melanocyte culture toxicity assay [6]	other results
COC(=O)c1cc(O)ccc1O [methyl gentisate]				IC50 (mammalian tyrosinase [1]; Curto et al. (1999), read-out: IC50 against tyrosinase in cell-free assays (converted)): 67 µM and 66.6 µM; IC50 in pigmentation inhibition in melanocyte cell cultures (Mel Ab melanocyte [2]; Curto et al. (1999)): 30.9 ± 5 µg/mL (≈ 184 µM); IC50 (Mel Ab melanocyte [2]; Curto et al. (1999), read-out: IC50 in pigmentation inhibition in melanocyte cell cultures): 184 µM; melanocyte cytotoxicity IC50 ([3]; Curto et al. (1999)): 118.7 ± 12 µg/mL; IC50 ([3]; Curto et al. (1999), read-out: melanocyte cytotoxicity IC50): 707 µM
COc1ccccc1C(=O)NO [ID-483, 2-Methoxybenzohydroxamic acid]	807 µM	32 µM	900 µM	
Cc1cccc(C(=O)NO)c1 [ID-481, 3-Methylbenzohydroxamic acid]	60 µM	< 0.25 µM	522 µM	
COc1ccc(C(=O)NO)cc1 [ID-480, 4-Methoxybenzohydroxamic acid]	57 µM	1.26 µM	170 µM	
CN(C)c1ccc(C(=O)NO)cc1 [ID-498, 4-Dimethylaminobenzo-hydroxamic acid]	44 µM	2.2 µM	136 µM	
COc1ccc(C(=O)N[O-])cc1OC.[K+] [ID-458, Potassium salt of 3,4-dimethoxy-benzohydroxamic acid]		23 µM	624 µM	IC50 (Mel Ab melanocyte [4]): 637 µM
Nc1ccc(C(=O)NO)cc1 [ID-476, 4-Aminobenzohydroxamic acid]	64 µM	0.34 µM	550 µM	
Cc1ccc(C(=O)NO)cc1 [ID-497, 4-Methylbenzohydroxamic acid]	45 µM	0.29 µM	160 µM	
CC(=O)Nc1ccccc1C(=O)NO [ID-484, 2-Acetamidobenzohydroxamic acid]	> 1000 µM	> 231 µM	>1000 µM	
COc1ccc(C(=O)NO)c(O)c1 [ID-462]	> 1000 µM	3.6 µM	>1000 µM	
Cc1cccc(C(=O)N(C)O)c1 [ID-485, 3,N-Dimethylbenzohydroxamic acid]	> 1000 µM	68 µM	>1000 µM	
CC(=O)Nc1cccc(C(=O)NO)c1 [ID-486, 3-Acetamidobenzohydroxamic acid]	369 µM	5.3 µM	>1000 µM	
COc1ccc(C(=O)NO)cc1OC [ID-456, 3,4-Dimethoxybenzohydroxamic acid]	576 µM	15 µM	641 µM	
O=C(NO)c1ccncc1 [ID-245]	183 µM	3.2 µM	566 µM	
COc1ccc(C(=O)N[O-])cc1.[K+] [ID-479, Potassium salt of 4-methoxybenzohydroxamic acid]		1.67 µM	64 µM	IC50 (Mel Ab melanocyte [4]): 43 µM
O=C(NO)c1cccc(Cl)c1 [ID-482, 3-Chlorobenzohydroxamic acid]	40 µM	< 0.25 µM	577 µM	
COc1cccc(C(=O)NO)c1 [ID-478, 3-Methoxybenzohydroxamic acid]	148 µM	0.91 µM	580 µM	
O=C(NO)c1cccc(Oc2ccccc2)c1 [ID-500, 3-Phenoxybenzohydroxamic acid]	234 µM	0.16 µM	>300 µM	
O=C(NO)c1ccccc1O [ID-282, Salicylhydroxamic acid]		3.7 µM	974 µM	
Oc1ccc(O)cc1 [hydroquinone]				enzymatic inhibition (mammalian tyrosinase [1]): minimal enzymatic inhibition; IC50 on Mel-Ab culture (Mel Ab melanocyte [2]; positive control, owing to cytotoxicity and not inhibition of pigmentation per se): low micrograms per milliliter range; melanocyte cytotoxicity [3]: potent melanocyte cytotoxicity
CCCCOc1ccc(C(=O)NO)cc1 [ID-477, 4-Butoxybenzohydroxamic acid]	326 µM	12 µM	>554 µM	
O=C(NO)c1ccccc1 [ID-357, Benzohydroxamic acid]	64 µM	0.82 µM	64 µM	
CC(=O)c1ccc(O)c(C(=O)NO)c1 [ID-474]	> 1000 µM	51 µM	>1000 µM	
Cc1ccc(C(=O)NO)cc1N [ID-499, 13-Amino-4-methyl-benzohydroxamic acid]	177 µM	6.4 µM	747 µM	
Nc1ccccc1C(=O)NO [ID-318, 2-Aminobenzohydroxamic acid]	431 µM	19 µM	600 µM	
Nc1cccc(C(=O)NO)c1 [ID-461, 3-Aminobenzohydroxamic acid]	225 µM	4 µM	>1000 µM	
